Reference: the supplement of paper PMC11451515

System: SEM cells
Test: cell viability relative to DMSO control; higher = less cytotoxic
Conditions: 48 h
Summary of the method: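 Before seeding, each leukemia line was adapted for at least four passages in each medium. NOMO1 or SEM cells (500 cells/well) and P12-Ichikawa cells (1000 cells/well) went into 1536-well plates at 5 μl, then received library compounds in DMSO by pin dosing across 11 threefold concentrations, 47 μM to 0.79 nM. Readout was CellTiter-Glo One luminescence after 48 h at 37°C, and viability is given as a per-plate percentage of DMSO wells, with cell-free wells as background.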

[1] = HPLM + 10% dialyzed FBS, 0.000781 µM
[2] = HPLM + 10% dialyzed FBS, 0.00234 µM
[3] = HPLM + 10% dialyzed FBS, 0.00702 µM
[4] = HPLM + 10% dialyzed FBS, 0.0211 µM
[5] = HPLM + 10% dialyzed FBS, 0.0632 µM
[6] = HPLM + 10% dialyzed FBS, 0.19 µM
[7] = HPLM + 10% dialyzed FBS, 0.569 µM
[8] = HPLM + 10% dialyzed FBS, 1.71 µM
[9] = HPLM + 10% dialyzed FBS, 5.12 µM
[10] = HPLM + 10% dialyzed FBS, 15.4 µM
[11] = HPLM + 10% dialyzed FBS, 46.1 µM
[12] = RPMI 5 mM glucose + 10% FBS, 0.000781 µM
[13] = RPMI 5 mM glucose + 10% FBS, 0.00234 µM
[14] = RPMI 5 mM glucose + 10% FBS, 0.00702 µM
[15] = RPMI 5 mM glucose + 10% FBS, 0.0211 µM
[16] = RPMI 5 mM glucose + 10% FBS, 0.0632 µM
[17] = RPMI 5 mM glucose + 10% FBS, 0.19 µM
[18] = RPMI 5 mM glucose + 10% FBS, 0.569 µM
[19] = RPMI 5 mM glucose + 10% FBS, 1.71 µM
[20] = RPMI 5 mM glucose + 10% FBS, 5.12 µM
[21] = RPMI 5 mM glucose + 10% FBS, 15.4 µM
[22] = RPMI 5 mM glucose + 10% FBS, 46.1 µM
[23] = RPMI 5 mM glucose + 10% dialyzed FBS, 0.000781 µM
[24] = RPMI 5 mM glucose + 10% dialyzed FBS, 0.00234 µM
[25] = RPMI 5 mM glucose + 10% dialyzed FBS, 0.00702 µM
[26] = RPMI 5 mM glucose + 10% dialyzed FBS, 0.0211 µM
[27] = RPMI 5 mM glucose + 10% dialyzed FBS, 0.0632 µM
[28] = RPMI 5 mM glucose + 10% dialyzed FBS, 0.19 µM
[29] = RPMI 5 mM glucose + 10% dialyzed FBS, 0.569 µM
[30] = RPMI 5 mM glucose + 10% dialyzed FBS, 1.71 µM
[31] = RPMI 5 mM glucose + 10% dialyzed FBS, 5.12 µM
[32] = RPMI 5 mM glucose + 10% dialyzed FBS, 15.4 µM
[33] = RPMI 5 mM glucose + 10% dialyzed FBS, 46.1 µM

Row | SMILES | cell viability [1] | cell viability [2] | cell viability [3] | cell viability [4] | cell viability [5] | cell viability [6] | cell viability [7] | cell viability [8] | cell viability [9] | cell viability [10] | cell viability [11] | cell viability [12] | cell viability [13] | cell viability [14] | cell viability [15] | cell viability [16] | cell viability [17] | cell viability [18] | cell viability [19] | cell viability [20] | cell viability [21] | cell viability [22] | cell viability [23] | cell viability [24] | cell viability [25] | cell viability [26] | cell viability [27] | cell viability [28] | cell viability [29] | cell viability [30] | cell viability [31] | cell viability [32] | cell viability [33]
1 | C=C(C)[C@H]1Cc2c(ccc3c2O[C@@H]2COc4cc(OC)c(OC)cc4[C@@H]2C3=O)O1 | 96% | 85.9% | 103% | 85.1% | 75.5% | 92.8% | 104% | 94.5% | 57.1% | 22.6% | 14.2% | 79.7% | 94.7% | 89.6% | 108% | 60.1% | 89% | 87.8% | 80.2% | 40.3% | 15.8% | 10% | 101% | 106% | 125% | 106% | 77% | 109% | 91.4% | 86.7% | 40.4% | 23.1% | 13.3%
2 | CC(C)C(=O)Nc1ccc([N+](=O)[O-])c(C(F)(F)F)c1 | 103% | 112% | 118% | 129% | 122% | 136% | 131% | 134% | 138% | 130% | 130% | 118% | 115% | 119% | 136% | 124% | 140% | 135% | 128% | 123% | 116% | 121% | 125% | 119% | 133% | 144% | 127% | 146% | 142% | 157% | 146% | 139% | 122%
3 | OC[C@H]1OCC(O1)[N@@]2C=CC(N)=NC2=O (stereo not given in full) | 108% | 81.3% | 90.7% | 106% | 115% | 103% | 107% | 99.3% | 96.3% | 102% | 96.6% | 73.1% | 62.4% | 77.8% | 77.5% | 78% | 84.2% | 80% | 64.4% | 70.7% | 63.8% | 56.3% | 96.7% | 95.8% | 96.3% | 106% | 113% | 110% | 114% | 103% | 106% | 101% | 88.8%
4 | O=c1[nH]c2ccccc2n1C1CCN(Cc2ccc(-c3nc4cc5nc[nH]c5cc4nc3-c3ccccc3)cc2)CC1 | 97.3% | 103% | 107% | 109% | 105% | 103% | 106% | 64.6% | 98.3% | 88.6% | 86.5% | 69.5% | 68.9% | 79.1% | 70.3% | 75.1% | 77.7% | 73.2% | 37.9% | 60.3% | 60.2% | 46.4% | 89.6% | 101% | 109% | 106% | 103% | 115% | 94.6% | 50.5% | 98.9% | 88.9% | 70.9%
5 | CC(N)C12CC3CC(CC(C3)C1)C2 (stereo not given) | 89.3% | 104% | 96.8% | 110% | 98.4% | 107% | 118% | 108% | 85.3% | 96.1% | 108% | 102% | 100% | 120% | 122% | 113% | 117% | 118% | 123% | 94.5% | 125% | 131% | 106% | 91.5% | 126% | 98.2% | 115% | 115% | 117% | 118% | 88.1% | 107% | 110%
6 | C[C@]12CC[C@@H]3c4ccc(O)cc4C[C@@H](CCCCCCCCC[S+]([O-])CCCC(F)(F)C(F)(F)F)[C@H]3[C@@H]1CC[C@@H]2O (stereo not given in full) | 123% | 112% | 114% | 118% | 113% | 112% | 125% | 117% | 119% | 126% | 109% | 89.1% | 84% | 82.8% | 93.2% | 85% | 80.4% | 82.4% | 99.2% | 80.8% | 83.7% | 86.3% | 120% | 124% | 105% | 111% | 110% | 112% | 125% | 114% | 103% | 102% | 81.6%
7 | FC(F)c1nc2ccccc2n1-c1nc(N2CCOCC2)nc(N2CCOCC2)n1 | 85.1% | 79% | 83.6% | 85.9% | 73.8% | 62.8% | 61.3% | 66.6% | 49.7% | 60% | 38.7% | 87.6% | 80.7% | 93.5% | 84.4% | 75.3% | 70.5% | 75.6% | 63.1% | 66% | 62.4% | 45.8% | 84.2% | 78.9% | 71.9% | 87.5% | 72.2% | 68.7% | 60.6% | 63.1% | 66% | 54.3% | 37.1%
8 | Cn1cnc2c1c(=O)[nH]c(=O)n2C | 97.5% | 110% | 103% | 106% | 116% | 115% | 112% | 107% | 94.1% | 91% | 5.76% | 92.7% | 85.2% | 106% | 101% | 93.2% | 107% | 93% | 94.3% | 79.6% | 61.8% | 5.77% | 95.3% | 99% | 90.9% | 108% | 111% | 94.3% | 108% | 105% | 96.8% | 79.9% | 6.67%
9 | O=C(c1ccc(Nc2nccc(-c3cc4ccccc4s3)n2)cc1)N1CCC(N2CCCC2)CC1 | 103% | 107% | 108% | 110% | 102% | 104% | 99.3% | 82.4% | 65.2% | 10.8% | 2.34% | – | – | – | – | – | – | – | – | – | – | – | 105% | 120% | 98.2% | 118% | 106% | 114% | 108% | 97.9% | 69.3% | 28.2% | 2.16%
10 | CC/1=C(/N2[C@H](SC1)[C@H](NC(=O)[C@H](N)\C3=C\C\C=C/C3)C2=O)C(O)=O | 79.3% | 87.2% | 94% | 86.5% | 82.9% | 97.1% | 95.8% | 91.2% | 93.5% | 111% | 102% | 95.8% | 106% | 120% | 98.1% | 115% | 120% | 111% | 118% | 107% | 113% | 120% | 88.8% | 112% | 98% | 87.4% | 109% | 117% | 114% | 107% | 124% | 114% | 113%
11 | C[S+]([O-])(=O)C1=CC=C(C=C1)C/2=C(/C(=O)OC2)C3=CC=CC=C3 | 96% | 102% | 105% | 107% | 103% | 115% | 104% | 115% | 115% | 79.7% | 94.1% | 100% | 107% | 104% | 119% | 114% | 122% | 104% | 95.1% | 102% | 66.9% | 11.4% | 89.4% | 105% | 115% | 111% | 112% | 120% | 119% | 117% | 124% | 75% | 71.6%
12 | COc1ccc(C2CNC(=O)C2)cc1OC1CCCC1 (stereo not given) | 80.8% | 93.4% | 91.4% | 89.7% | 106% | 97.7% | 107% | 102% | 108% | 97% | 101% | 82.9% | 88.6% | 89.9% | 81.7% | 100% | 95.3% | 102% | 110% | 97.3% | 107% | 90.2% | 85.9% | 89.7% | 101% | 89.8% | 95% | 99.3% | 94.6% | 99.9% | 101% | 102% | 103%
13 | Cc1cccc(Nc2nc(-c3ccncc3)cs2)c1 | 86.5% | 115% | 88.8% | 98.3% | 99.5% | 126% | 104% | 117% | 118% | 112% | 59.5% | – | – | – | – | – | – | – | – | – | – | – | 92.4% | 141% | 84% | 116% | 109% | 125% | 134% | 130% | 123% | 96.3% | 46.2%
14 | Cc1c(C(=O)NN2CCCCC2)nn(-c2ccc(Cl)cc2Cl)c1-c1ccc(Cl)cc1 | 103% | 125% | 113% | 114% | 128% | 129% | 122% | 124% | 131% | 127% | 93% | 103% | 112% | 118% | 118% | 118% | 127% | 127% | 135% | 130% | 129% | 99.5% | 107% | 120% | 137% | 116% | 128% | 149% | 139% | 144% | 119% | 133% | 104%
